Article PMC10380488, “Cx43 Hemichannel and Panx1 Channel Modulation by Gap19 and ^10Panx1 Peptides” (International Journal of Molecular Sciences, 2023)
Where “and” joins values, the source holds several entries; their conditions need not be identical. Equal entries are not always repeated. Entries after “also recorded” stand apart in the source; their conditions may differ.

Columns and labels:
[1] = tested on: Cx43 HCs; test: Whole-cell patch-clamp, unitary Cx43 hemichannel current activity in HeLa-Cx43 cells; type: cell-based; conditions: for nominal open probability (NPo) of Cx43 HCs: preincubated 45 min, HeLa-Cx43, step −30 to +70 mV, 30 s, mean ± SEM, control 0.48 ± 0.02; for reduction of NPo of Cx43 HCs: vs control; for conductance γ of Cx43 HC, subconductance state, transition histogram / unitary conductance γ of Cx43 HC, fully open state, transition histogram: Figure 3B, mean ± SD
Description: (§1) We used HeLa cells stably transfected with Cx43 (HeLa-Cx43 [56]); endogenous expression of Panx1 is very low or absent in non-transfected HeLa cells. C6 glioma cells stably transfected with Panx1 (C6-Panx1, C-terminally myc-tagged; kind gift of Dr Christian C. Naus, University of British Columbia, Canada) were used for the Panx1 channel studies; Cx43 expression is low or undetectable [61] in these cells. HeLa cells were maintained in Dulbecco’s modified Eagle’s medium (DMEM; Invitrogen, Gent, Belgium), and C6 cells were grown in DMEM:Ham’s F12 (1:1—Invitrogen, Merelbeke, Belgium), all supplemented with 10% fetal bovine serum (FBS), 2 mM glutamine, 10 U/mL penicillin, 10 µg/mL streptomycin and 0.25 µg/mL fungizone. Stable exogenous expressions were maintained by supplementation of 1 and 3 µg/mL puromycin (Sigma-Aldrich, Bornem, Belgium) for HeLa-Cx43 and C6-Panx1 cells, respectively. Stable transfectants were subcultured into puromycin-free medium 2 days prior to experimentation. Cells were maintained at 37 °C and 10% (HeLa-Cx43) or 5% (C6-Panx1) CO2.
(§2) All experimental data were obtained with the patch-clamp technique in whole-cell recording mode on HeLa-Cx43 and C6-Panx1 cells. Extracellular solution was composed of the following (in mM): 150 NaCl, 4 CsCl, 2 CaCl2, 2 MgCl2, 2 pyruvic acid, 5 glucose and 5 HEPES at pH of 7.4, while the pipette solution consisted of the following (in mM): 125 CsCl, 10 sodium aspartate (NaAsp), 0.26 CaCl2, 1 MgCl2, 2 EGTA, 10 tetraethylammonium (TEA)-Cl and 5 HEPES at pH 7.2. The free Ca^2+ concentration of the pipette solution was estimated to be ~50 nM as calculated with WEBMAX (https://somapp.ucdmc.ucdavis.edu/pharmacology/bers/maxchelator/webmaxc/webmaxcS.htm; accessed on 20 September 2020). Whole-cell recording was performed under control conditions and in the presence of Gap19 or ^10Panx1. Gap19 was included in the pipette solution, while ^10Panx1 was added externally and preincubated for 45 min. Recordings were commenced 2 min after establishment of the whole-cell configuration. Currents were recorded with an EPC 7 PLUS patch-clamp amplifier (HEKA Elektronik, Germany). Unitary current activities were elicited by stepping the cells from a holding potential of −30 mV to a membrane potential (Vm) of +70 mV for 30 s. Data were digitized at 4 KHz using an NI USB-6221 data acquisition device (National Instruments, Austin, TX, USA) and WinWCP acquisition software designed by Dr. J. Dempster (University of Strathclyde, United Kingdom). Measured currents were filtered by a 7-pole Bessel low-pass filter at 1 KHz cut-off frequency. Transition analysis was performed as reported in [16]. Unitary channel conductances were determined from transition histograms as well as from all-point histograms and were obtained by fitting their frequencies to Gaussian distributions. Channel opening activity is expressed as nominal open probability NPo, denoting the number of active channels in the patch multiplied by the open probability.
(§3) Data were processed using Clampfit version 11.2 (Molecular Devices, San Jose, USA) and HemiGUI software as previously described. Results are expressed as mean ± SEM (unless otherwise stated), with n giving the number of traces, N the number of cells, and N the number of experiments on different cell culture dishes. Multiple groups were compared by one-way analysis of variance with post-hoc Dunnett’s or Bonferroni multiple comparison tests, making use of GraphPad PRISM 5.0 (GraphPad Software, Inc., La Jolla, CA). Results were considered statistically significant when p ≤ 0.05 (*; # for p ≤ 0.05, **; ## for p ≤ 0.01, ***; ### for p ≤ 0.001, and ****; #### for p ≤ 0.0001).

[2] = biological target: T1, Panx1 channels (Rattus norvegicus, UniProt P60570); test: Whole-cell patch-clamp, unitary Panx1 channel current activity in C6-Panx1 cells; type: cell-based; conditions: for nominal open probability (NPo) of Panx1 channels: preincubated 45 min, C6-Panx1, step −30 to +70 mV, 30 s, mean ± SEM, control 0.37 ± 0.02; for reduction of NPo of Panx1 channels: vs control
T1 construct: expressed in transfected cells; host or cells: C6 glioma cells (C6-Panx1), gift of Dr Christian C; Naus
Description: as §1, §2, §3

[3] = tested on: Cx46 HC; conditions: cited from earlier work
Description: (§4) Connexins and pannexins are two ubiquitous but distinct protein families forming membrane hemichannels (HCs) and channels in the plasma membrane, respectively. They facilitate the exchange of ions and small molecules (MW ≤ 1.5 kDa) between the intracellular and the extracellular compartment upon opening. Among these respective families, connexin-43 (Cx43) and pannexin-1 (Panx1) are the most abundant isotypes in the human body expressed in a wide array of tissues. Panx1 and Cx43 have several common properties, including the following: (i) an analogous tetra-spanning transmembrane topology with ...

[4] = biological target: T1, Panx1 channels; conditions: 200 µM extracellular; high extracellular K^+; cited from earlier work
Description: as §4

[5] = tested on: Cx43 or Panx1 channels; conditions: 100 μM extracellular; HeLa cells expressing Cx43 or Panx1; cited from earlier work
Description: as §4

[6] = tested on: Panx1 channel; conditions: some evidence; cited from earlier work
Description: The representative traces depicted in Figure 1A (enlarged display in Supplementary Figure S1) show unitary Panx1 current activities evoked by repeated (every 40 s) Vm steps from a holding potential of −30 mV to +70 mV (with a duration of 30 s) in voltage-clamp experiments (using whole-cell patch-clamp recording). Under control conditions, a single channel conductance of ~65 pS was observed as determined from the channel transition histograms shown in Figure 1B, i.e., below the 100 pS range, which is typical for voltage-dependent Panx1 channel-opening activity. We tested the effec ...

[7] = 100 μM ^10Panx1 extracellular, N = 12, n = 88
[8] = 200 μM ^10Panx1 extracellular, N = 11, n = 97

T1 sequence (P60570 whole entry): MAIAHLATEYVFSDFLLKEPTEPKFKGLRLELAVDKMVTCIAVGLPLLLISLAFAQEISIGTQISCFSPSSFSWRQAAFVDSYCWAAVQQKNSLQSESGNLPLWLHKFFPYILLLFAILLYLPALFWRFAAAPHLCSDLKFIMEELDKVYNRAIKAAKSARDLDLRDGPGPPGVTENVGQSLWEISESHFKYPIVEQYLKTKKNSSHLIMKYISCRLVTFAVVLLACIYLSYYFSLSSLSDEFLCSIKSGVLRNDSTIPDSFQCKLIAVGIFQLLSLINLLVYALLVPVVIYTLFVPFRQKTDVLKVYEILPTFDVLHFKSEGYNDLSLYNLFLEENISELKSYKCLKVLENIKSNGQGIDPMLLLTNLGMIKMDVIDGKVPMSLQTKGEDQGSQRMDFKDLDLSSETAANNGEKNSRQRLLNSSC

In the case of WRQAAFVDSY [^10Panx1], the “nominal open probability (NPo) of Cx43 HCs” value ([1]; 100 μM ^10Panx1 extracellular, N = 12 cells, n = 88 traces) is reported as 0.30 ± 0.03, the “reduction of NPo of Cx43 HCs” value ([1]; 100 μM ^10Panx1 extracellular, significant) is reported as 37% and the “nominal open probability (NPo) of Cx43 HCs” value ([1]; 200 μM ^10Panx1 extracellular, N = 11 cells, n = 97 traces) is reported as 0.08 ± 0.01. The “reduction of NPo of Cx43 HCs” value ([1]; 200 μM ^10Panx1 extracellular) was ~ 83% and 83%, the “nominal open probability (NPo) of Cx43 HCs” value ([1]; 500 μM ^10Panx1 extracellular, N = 8 cells, n = 53 traces) was 0.03 ± 0.01 and the “reduction of NPo of Cx43 HCs” value ([1]; 500 μM ^10Panx1 extracellular) was 94%. For the same sequence, the “conductance γ of Cx43 HC, subconductance state, transition histogram” value [1, 7] was 81 ± 29 pS, the “unitary conductance γ of Cx43 HC, fully open state, transition histogram” value [1, 7] was 202 ± 57 pS and the “conductance γ of Cx43 HC, subconductance state, transition histogram” value [1, 8] was 78 ± 27 pS. For the same sequence, the “unitary conductance γ of Cx43 HC, fully open state, transition histogram” value [1, 8] was 216 ± 74 pS, the “conductance γ of Cx43 HC, all-point histogram” value ([1]; Figure 3C, 100 μM ^10Panx1 extracellular) was 201 ± 36 pS and the “inhibition of Cx43 HC opening activity (in words)” value ([1]; Gap19 intracellular / ^10Panx1 extracellular, 100-500 μM (Gap19 100–200 μM)) was “Inhibited; also recorded: concentration-dependent and significant inhibition; also recorded: inhibits Cx43 HCs over the 100–500 µM concentration range”. For the same sequence, the “effect on Cx43 HC gating (fully open state vs subconductance state)” value ([1]; Gap19 intracellular / ^10Panx1 extracellular, from 100 µM) was “increasing the frequency of subconductance transitions while decreasing the frequency of transitions to the fully open state; also recorded: reduced the propensity of gating to the main open state but increased the incidence of gating to the HC subconductance state”, the “relative reduction of Cx43 HC function vs Panx1 channel function (selectivity)” value ([1]; ^10Panx1 extracellular, all the concentrations tested (100, 200, 500 μM)) was “more strongly reduces Cx43 HC function than Panx1 channel function at all the concentrations tested” and the “flickering frequency (fast-flickering closures) of Panx1 channel” value (from here on “flickering frequency”) ([2]; 100 µM ^10Panx1 extracellular) was 67 Hz. For the same sequence, the “nominal open probability (NPo) of Panx1 channels” value ([2]; 100 μM ^10Panx1 extracellular, N = 11 cells, n = 106 traces) was 0.28 ± 0.03, the “reduction of NPo of Panx1 channels” value ([2]; 100 μM ^10Panx1 extracellular) was 26.0% and ~ 25% and the “flickering frequency” value ([2]; 200 µM ^10Panx1 extracellular) was 84 Hz. For the same sequence, the “nominal open probability (NPo) of Panx1 channels” value ([2]; 200 μM ^10Panx1 extracellular, N = 12 cells, n = 116 traces) was 0.19 ± 0.01, the “reduction of NPo of Panx1 channels” value ([2]; 200 μM ^10Panx1 extracellular) was 49.5% and the “flickering frequency” value ([2]; 500 µM ^10Panx1 extracellular) was 146 Hz. The “nominal open probability (NPo) of Panx1 channels” value ([2]; 500 μM ^10Panx1 extracellular, N = 11 cells, n = 76 traces) was 0.13 ± 0.02, the “reduction of NPo of Panx1 channels” value ([2]; 500 μM ^10Panx1 extracellular) was 66.0% and the “inhibition of Panx1 channel-opening activity (in words)” value ([2]; ^10Panx1 extracellular, 100, 200 and 500 µM) was “Concentration-Dependently Inhibited”. The “effect on open-state events of Panx1, all-point histograms” value ([2]; ^10Panx1 extracellular, 100 and 200 μM, Figure 1C) was “clearly decreased the frequency of open-state events; also recorded: open-state peaks decreased in height while the closed-state peaks increased”, the “subconductance gating of Panx1 channels” value ([2]; ^10Panx1 extracellular, Figure 1) was “did not induce the subconductance gating of Panx1 channels” and the “effect on Cx46 HC peak currents” value [3] was “partially inhibit Cx46 HC peak currents”. For the same sequence, the “effect on ATP release from Panx1-overexpressing cells” value [4] was “inhibits ATP release”, the “selectivity for Cx43 or Panx1 channels” value [5] was “good selectivity” and the “interaction with the pore of the channel protein” value [6] was “some evidence pointing to an interaction with the pore of the channel protein”.
